Laboratory results published in patent US10183952B2, “Thienopyrroles as histone demethylase inhibitors” (ISTITUTO EUROPEO DI ONCOLOGIA S.R.L., priority 2014, dated 2019).
Where a name gives a salt, the structure may show the parent alone.

Columns and labels:
[1] = test system: human leukemia MV4-11 cells; assay: Cell growth, CellTiter-Fluor Cell Viability Assay, MV4-11; assay type: cell-based; settings: 48 h incubation, read-out: IC50 against human leukemia MV4-11 cells
Excerpt: (§1) The CellTiter-Fluor™ Cell Viability Assay measures the conserved and constitutive protease activity within live cells and therefore acts as a marker for cell viability.
(§2) CellTiter-Flor® (Promega) is as a nonlytic, single-reagent-addition fluorescence assay that measures the relative number of living cells in a culture population after experimental manipulation. The CellTiter-Fluor™ Cell Viability Assay measures the conserved and constitutive protease activity within live cells and therefore acts as a marker for cell viability.
(§3) Human leukemia MV4-11 cells, (obtained from the Deutsche Sammlung von Mikroorganismen und Zellkulturen, ACC 102) or NB4 cells, (obtained from the Deutsche Sammlung von Mikroorganismen und Zellkulturen) in exponential growth, were incubated for 48 h with different concentrations of the inhibitors. After 48 h a volume of CellTiter-Fluor® Reagent equal to one fifth of volume of cell culture medium was added. The content was mixed and incubates for at least 90 min at 37° C. degree to obtain a stable signal. The fluorescence was recorded using an excitation wavelength of 360 nm and an emission at 535 nm. The IC50 was calculated using GraphPad Software.

[2] = target: human recombinant KDM1A/CoREST protein (Homo sapiens, UniProt O60341); assay: Assay of enzyme inhibition of KDM1A (LSD1), TR-FRET
Procedure: The intensity of the light emission is proportional to the level of biotinylated reaction product. The complex of human recombinant KDM1A/CoREST protein was produced in E. coli as separate proteins and co-purified as previously described.
Demethylase reaction was started by the addition of 50 nM histone H3K4 monomethylated.
The resulting mixture was incubated in the dark for 1 h at RT.

[3] = test system: human leukemia NB4 cells; assay: Cell growth, CellTiter-Fluor Cell Viability Assay, NB4; assay type: cell-based; settings: NB-4, 48 h incubation, read-out: IC50 against human leukemia NB4 cells
Excerpt: as §1, §2, §3

Row | SMILES | IC50 [1] | IC50 [2] | IC50 [3]
1 | Cn1c(C(=O)Nc2ccccc2COc2ccc(OC[C@@H]3CCNC3)cc2)cc2sccc21 [Example 4, 4-methyl-N-[2-[[4-[[(3R)-pyrrolidin-3-yl]methoxy]phenoxy]methyl]phenyl]thieno[3,2-b]pyrrole-5-carboxamide] | < 10 µM | < 10 µM | < 20 µM
2 | Cn1c(C(=O)Nc2ccccc2COc2ccc(O[C@H]3CC[C@@H](N)CC3)cc2)cc2sccc21 [Example 9, N-[2-[[4-(cis-4-aminocyclohexoxy)phenoxy]methyl]phenyl]-4-methyl-thieno[3,2-b]pyrrole-5-carboxamide] | < 10 µM | < 10 µM | < 20 µM
3 | CCN1CCC(Oc2ccc(OCc3ccccc3NC(=O)c3cc4sccc4n3C)cc2)CC1 [Example 3, N-[2-[[4-[(1-ethyl-4-piperidyl)oxy]phenoxy]methyl]phenyl]-4-methyl-thieno[3,2-b]pyrrole-5-carboxamide] | < 10 µM | < 10 µM | < 20 µM
4 | Cn1c(C(=O)Nc2ccccc2COc2ccc(OCC3CCNC3)cc2)cc2sccc21 (stereo not drawn) [Example 5, 4-methyl-N-[2-[[4-(pyrrolidin-3-ylmethoxy)phenoxy]methyl]phenyl]thieno[3,2-b]pyrrole-5-carboxamide] | < 10 µM | < 10 µM | < 20 µM
5 | Cn1c(C(=O)Nc2ccccc2CCc2ccc(OC3CCNCC3)cc2)cc2sccc21 [Example 61, 4-Methyl-N-[2-[2-[4-(4-piperidyloxy)phenyl]ethyl]phenyl]thieno[3,2-b]pyrrole-5-carboxamide hydrochloride] | < 10 µM | < 10 µM | < 20 µM
6 | CN1CCC(Oc2ccc(OCc3ccccc3NC(=O)c3cc4sccc4n3C)cc2)CC1 [Example 13, 4-methyl-N-[2-[[4-[(1-methyl-4-piperidyl)oxy]phenoxy]methyl]phenyl]thieno[3,2-b]pyrrole-5-carboxamide] | < 10 µM | < 10 µM | < 20 µM
7 | Cn1c(C(=O)Nc2ccccc2CNc2ccc(OC3CCNCC3)cc2)cc2sccc21 [Example 63, 4-Methyl-N-[2-[[4-(4-piperidyloxy)anilino]methyl]phenyl]thieno[3,2-b]pyrrole-5-carboxamide dihydrochloride] | < 10 µM | < 10 µM | < 20 µM
8 | Cn1c(C(=O)Nc2ccccc2COc2ccc(OC[C@H]3CCNC3)cc2)cc2sccc21 [Example 11, 4-methyl-N-[2-[[4-[[(3S)-pyrrolidin-3-yl]methoxy]phenoxy]methyl]phenyl]thieno[3,2-b]pyrrole-5-carboxamide] | < 10 µM | < 10 µM | < 20 µM
9 | CN1CCC(Oc2cccc(OCc3ccccc3NC(=O)c3cc4sccc4n3C)c2)CC1 [Example 17, 4-methyl-N-[2-[[3-[(1-methyl-4-piperidyl)oxy]phenoxy]methyl]phenyl]thieno[3,2-b]pyrrole-5-carboxamide] | < 10 µM | < 10 µM | < 20 µM
10 | CCn1c(C(=O)Nc2ccccc2COc2ccc(OC3CCNCC3)cc2)cc2sccc21 [Example 8, 4-ethyl-N-[2-[[4-(4-piperidyloxy)phenoxy]methyl]phenyl]thieno[3,2-b]pyrrole-5-carboxamide] | < 10 µM | < 10 µM | < 20 µM
11 | CCOCc1cccc(NC(=O)c2cc3sccc3n2C)c1COc1ccc(OC[C@@H]2CCNC2)cc1 [Example 52, N-[3-(Ethoxymethyl)-2-[[4-[[(3R)-pyrrolidin-3-yl]methoxy]phenoxy]methyl]phenyl]-4-methyl-thieno[3,2-b]pyrrole-5-carboxamide hydrochloride] | < 10 µM | < 10 µM | < 20 µM
12 | Cn1c(C(=O)Nc2ccccc2COc2cccc(OC3CCNCC3)c2)cc2sccc21 [Example 18, 4-methyl-N-[2-[[3-(4-piperidyloxy)phenoxy]methyl]phenyl]thieno[3,2-b]pyrrole-5-carboxamide] | < 10 µM | < 10 µM | < 20 µM
13 | Cn1c(C(=O)Nc2cccc(OCc3ccncc3)c2)cc2sccc21 [Example 21, 4-methyl-N-[3-(4-pyridylmethoxy)phenyl]thieno[3,2-b]pyrrole-5-carboxamide] | < 10 µM | < 10 µM | < 20 µM
14 | Cn1c(C(=O)Nc2ccccc2COc2ccc(O[C@H]3CC[C@H](N)CC3)cc2)cc2sccc21 [Example 14, N-[2-[[4-(trans-4-aminocyclohexoxy)phenoxy]methyl]phenyl]-4-methyl-thieno[3,2-b]pyrrole-5-carboxamide] | < 10 µM | < 10 µM | < 20 µM
15 | Cn1c(C(=O)Nc2cccc(COc3ccc(OC4CCNCC4)cc3)c2)cc2sccc21 [Example 10, 4-methyl-N-[3-[[4-(4-piperidyloxy)phenoxy]methyl]phenyl]thieno[3,2-b]pyrrole-5-carboxamide] | < 10 µM | < 10 µM | < 20 µM
16 | CCn1c(C(=O)Nc2ccccc2COc2ccc(OC3CCN(C)CC3)cc2)cc2sccc21 [Example 12, 4-ethyl-N-[2-[[4-[(1-methyl-4-piperidyl)oxy]phenoxy]methyl]phenyl]thieno[3,2-b]pyrrole-5-carboxamide] | < 10 µM | < 10 µM | < 20 µM
17 | CN1CCC(Oc2ccc(OCc3cccc(NC(=O)c4cc5sccc5n4C)c3)cc2)CC1 [Example 15, 4-methyl-N-[3-[[4-[(1-methyl-4-piperidyl)oxy]phenoxy]methyl]phenyl]thieno[3,2-b]pyrrole-5-carboxamide] | < 10 µM | < 10 µM | < 20 µM
18 | Cn1c(C(=O)Nc2cccc(CCc3ccc(OC4CCNCC4)cc3)c2)cc2sccc21 [Example 62, 4-Methyl-N-[3-[2-[4-(4-piperidyloxy)phenyl]ethyl]phenyl]thieno[3,2-b]pyrrole-5-carboxamide hydrochloride] | < 10 µM | < 10 µM | < 20 µM
19 | CN1CCN(Cc2ccc(OCc3ccccc3NC(=O)c3cc4sccc4n3C)cc2)CC1 [Example 20, 4-methyl-N-[2-[[4-[(4-methylpiperazin-1-yl)methyl]phenoxy]methyl]phenyl]thieno[3,2-b]pyrrole-5-carboxamide] | < 10 µM | < 10 µM | < 20 µM
20 | CN1CCCC(COc2cccc(NC(=O)c3cc4sccc4n3C)c2)C1 (stereo not drawn) [Example 19, 4-methyl-N-[3-[(1-methyl-3-piperidyl)methoxy]phenyl]thieno[3,2-b]pyrrole-5-carboxamide] | < 10 µM | < 10 µM | < 20 µM
21 | Cc1ccc(COc2ccc(OCC3CCNC3)cc2)c(NC(=O)c2cc3sccc3n2C)c1 (stereo not drawn) [Example 55, 4-Methyl-N-[5-methyl-2-[[4-(pyrrolidin-3-ylmethoxy)phenoxy]methyl]phenyl]thieno[3,2-b]pyrrole-5-carboxamide] | < 10 µM | < 10 µM | < 20 µM
22 | CCn1c(C(=O)Nc2cccc(COC)c2COc2ccc(OC[C@@H]3CCNC3)cc2)cc2sccc21 [Example 53, 4-Ethyl-N-[3-(methoxymethyl)-2-[[4-[[(3R)-pyrrolidin-3-yl]methoxy]phenoxy]methyl]phenyl]thieno[3,2-b]pyrrole-5-carboxamide; trifluoroacetic acid] | < 10 µM | < 10 µM | < 20 µM
23 | COCc1cccc(NC(=O)c2cc3sccc3n2C)c1COc1ccc(OC[C@H]2CCNC2)cc1 [Example 49, N-[3-(Methoxymethyl)-2-[[4-[[(3S)-pyrrolidin-3-yl]methoxy]phenoxy]methyl]phenyl]-4-methyl-thieno[3,2-b]pyrrole-5-carboxamide hydrochloride] | < 10 µM | < 10 µM | < 20 µM
24 | CCn1c(C(=O)Nc2cccc(COc3ccc(OC4CCNCC4)cc3)c2)cc2sccc21 [Example 6, 4-ethyl-N-[3-[[4-(4-piperidyloxy)phenoxy]methyl]phenyl]thieno[3,2-b]pyrrole-5-carboxamide] | < 10 µM | < 10 µM | < 20 µM
25 | CCOCc1cccc(NC(=O)c2cc3sccc3n2C)c1COc1ccc(OC2CCNCC2)cc1 [Example 50, N-[3-(Ethoxymethyl)-2-[[4-(4-piperidyloxy)phenoxy]methyl]phenyl]-4-methyl-thieno[3,2-b]pyrrole-5-carboxamide hydrochloride] | < 10 µM | < 10 µM | < 20 µM
